Values of other authors, collected in patent EP4454482A1, “PREPARATIONS COMPRISING OLEANOL GLYCOSIDES” (Analyticon Discovery GmbH, priority 2023, dated 2024).

Conditions: water (20° dH) at 20 °C; solid active agent

Nc1nc2c(ncn2COCCO)c(=O)[nH]1 [Acyclovir, 2-Amino-1,9-dihydro-9-((2-hydroxyethoxy)methyl)-6H-Purin-6-one]
solubility in water: less than 5 g/L
